According to the supplement of paper PMC6045584:

Experiments:
Assay in all cases: area under dose-response curve of surviving fraction (unscaled, Aref=0) (surviving fraction x log10(nM)); higher = more resistant
Conditions in all cases: exposure time: 5 days; dose range 0.5-1000 nM
SAPACITABINE = compound: CCCCCCCCCCCCCCCC(=O)Nc1ccn([C@@H]2O[C@H](CO)[C@@H](O)[C@@H]2C#N)c(=O)n1 [SAPACITABINE]
Outline: (§1)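 Three screens per tumour cell line were run in 384-well plates at eight inhibitor concentrations from 0.5 to 1000 nM over five days. Surviving fractions, from CellTiter-Glo luminescence normalised to DMSO-only wells, were fitted with 3-parameter logistic curves in the drc R package. The reported area under the curve is the unscaled activity area. It spans log10 dose, and Aref is 0.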

AFATINIB = compound: CN(C)C/C=C/C(=O)Nc1cc2c(Nc3ccc(F)c(Cl)c3)ncnc2cc1O[C@H]1CCOC1 [AFATINIB]
Outline: as §1

[1] = compound: Cn1cc(C2=Nc3cc(NC(=O)C(N)C4CCCCC4)cc4c3C2=CNNC4=O)cn1
Outline: as §1

TIOGUANINE = compound: Nc1nc2[nH]cnc2c(=S)[nH]1 [TIOGUANINE]
Outline: as §1

Test System	area under dose-response curve (SAPACITABINE)	area under dose-response curve (AFATINIB)	area under dose-response curve [1]	area under dose-response curve (TIOGUANINE)
22RV1 PROSTATE	2.46	3.06	2.97	3.28
93VU HEADNECK	2.69	1.9	3.08	3.19
143B BONE	–	3.29	2.8	3.27
A549 LUNG	2.57	3.35	–	3.21
ASKA SYNOVIAL	2.18	3.14	2.3	3.56
BT20 BREAST	1.76	–	3.17	3.43
BT549 BREAST	1.85	3.09	2.19	3.29
CAL51 BREAST	2.32	3.19	2.86	3.31
CAL72 BONE	2.07	3.5	2.58	3.66
CAL120 BREAST	2.46	2.87	2.8	3.05
CASKI CERVIX	2.91	0.986	2.04	3.1
CHLA90 AUTONOMIC GANGLIA	2.09	2.76	2.37	3.12
CME SYNOVIAL	1.45	4.36	–	3.97
COLO320DM LARGE INTESTINE	2.44	3.24	3.21	3.52
DU4475 BREAST	1.86	–	2.46	2.55
G292 BONE	2.32	3.06	2.19	3.25
H23 LUNG	2.6	1.57	–	3.25
HCC38 BREAST	2.32	3.94	1.69	3.75
HCC70 BREAST	2.57	–	2.23	3.37
HCC78 LUNG	1.52	2.33	2.33	2.59
HCC202 BREAST	–	1.39	2.24	4.41
HCC1395 BREAST	2.91	3.5	2.62	3.56
HCC1806 BREAST	1.25	2.28	2.07	3.5

Test System	area under dose-response curve (SAPACITABINE)	area under dose-response curve (AFATINIB)	area under dose-response curve [1]	area under dose-response curve (TIOGUANINE)
HCC1954 BREAST	1.48	1.86	2.06	3.09
HMLE3 BREAST	2.03	3.07	2.79	3.06
HMT3552 BREAST	2.99	–	–	–
HS578T BREAST	2.8	–	2.39	3.13
HT1080 SOFT TISSUE	2.33	3.25	2.6	3.16
HU09 BONE	2.37	3.05	2.19	3.42
HUO3N1 BONE	2.73	3.17	2.88	3.41
JIMT1 BREAST	2.84	2.62	2.96	3.25
JURKAT HAEMATOPOIETIC AND LYMPHOID TISSUE	1.09	3.13	2.23	3.27
LM7 BONE	1.77	2.89	2.46	3.33
LNCAP PROSTATE	2.15	3.17	3.06	3.21
MCF7 BREAST	2.58	3.17	2.85	2.83
MDAMB134 BREAST	2.57	3.16	2.44	3.2
MDAMB157 BREAST	2.24	3.17	2.88	3.03
MDAMB436 BREAST	2.05	2.99	2.31	2.8
MDAMB453 BREAST	3.1	2.7	2.33	3.28
MDAMB468 BREAST	2.27	2.26	2.58	3.52
MFM223 BREAST	2.85	3.2	2.38	3.53
MHM BONE	2.69	3.27	2.98	3.29
NCIH441 LUNG	2.28	3.02	2.85	3.28
OS25HAL BONE	2.79	3.28	2.71	3.21
OSHN BONE	2.83	3.58	2.6	–
PCI30 HEADNECK	2.94	1.61	2.65	3.19

Test System	area under dose-response curve (SAPACITABINE)	area under dose-response curve (AFATINIB)	area under dose-response curve [1]	area under dose-response curve (TIOGUANINE)
SAOS2 BONE	2.19	3.04	2.52	3.44
SCC003 HEADNECK	2.85	2.48	3.25	3.27
SCC36 HEADNECK	2.66	1.53	2.54	3.72
SCC47 HEADNECK	3.12	2.35	–	2.97
SG27 HEADNECK	–	3.13	3.1	3.34
SG28 HEADNECK	–	1.78	2.64	3.45
SG31 HEADNECK	2.62	2.04	2.91	–
SIHA CERVIX	3.12	3.2	3.22	3.01
SKBR3 BREAST	2.23	0.986	2.39	3.36
SNU475 LIVER	2.23	2.99	3	3.14
SUM44 BREAST	2.51	3.18	1.84	3.39
SUM149 BREAST	1.31	1.98	1.97	–
SUM149.B1*.S BREAST	1.89	–	3.05	3.25
SUM159 BREAST	2.81	3.13	3.54	–
SYO1 SYNOVIAL	1.23	2.96	1.84	2.43
T47D BREAST	2.9	3.42	3.35	3.35
U2OS BONE	2.92	3.19	2.85	3.25
VCAP PROSTATE	3.11	3.11	2.82	3.49
VP229 BREAST	2.46	1.7	3.5	3.57
YAMATO SYNOVIAL	1.68	4.09	2.58	4.3
ZR751 BREAST	2.9	2.83	2.71	–
